According to patent publication US20250051327A1, “MALT-1 MODULATORS” (EXSCIENTIA AI LIMITED, priority 2020, published 2025):

How the values were obtained:
[1] = biological target: Recombinant human MALT-1 (amino acids 340-824) (Homo sapiens (Human), UniProt Q9UDY8); experiment: MALT-1 inhibition assay (fluorogenic substrate Ac-LRSR-Rh110-DP); type: biochemical; settings: recombinant human MALT-1, substrate Ac-LRSR-Rh110-DP
Outline: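 Reactions were started with fluorogenic substrate Ac-LRSR-Rh110-DP (10 μM final) against 3 nM enzyme and kept dark at 25° C for 60 minutes. IC50 values came from 4-parameter logistic fits of percent inhibition calculated from relative fluorescence units.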

[2] = test system: IL-2 secretion by human effector memory T cells (TEM); experiment: Effector memory T cells IL-2 release assay; type: cell-based; settings: T-cell; human CD4+ effector memory T cells, CD3/CD28 bead stimulation, 24 h; read-out: CD4TC IL2 IC50
Outline: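 Human CD4+ effector memory T cells from healthy-donor buffy coats were stimulated with anti-CD3/CD28 Dynabeads and exposed to 10 semi-log compound doses (0.1% DMSO) for 24 h at 37 °C. Supernatant IL-2 was measured by HTRF, and IC50 came from a 4-parameter logistic fit to maximal IL-2. Viability was checked by flow cytometry.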

Recombinant human MALT-1 (amino acids 340-824), sequence (Q9UDY8 340-824): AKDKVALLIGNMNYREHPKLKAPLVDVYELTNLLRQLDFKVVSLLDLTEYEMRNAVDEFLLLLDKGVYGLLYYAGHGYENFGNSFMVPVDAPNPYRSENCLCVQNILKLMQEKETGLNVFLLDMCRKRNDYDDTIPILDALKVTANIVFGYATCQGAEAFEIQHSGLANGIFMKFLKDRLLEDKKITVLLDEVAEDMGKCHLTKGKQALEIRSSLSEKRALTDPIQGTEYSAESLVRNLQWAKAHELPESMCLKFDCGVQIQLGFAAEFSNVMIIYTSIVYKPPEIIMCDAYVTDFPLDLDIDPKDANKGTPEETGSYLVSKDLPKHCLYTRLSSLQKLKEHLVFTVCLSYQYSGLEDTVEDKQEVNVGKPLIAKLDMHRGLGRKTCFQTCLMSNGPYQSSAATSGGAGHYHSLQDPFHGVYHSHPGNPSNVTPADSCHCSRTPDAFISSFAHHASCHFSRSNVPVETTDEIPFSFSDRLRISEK

SMILES	IC50 [1]	IC50 [2]
CN(C(=O)CN1CCS(=O)(=O)CC1)[C@@H](c1ccc(N2CCCc3c2cnc2cc(Cl)nn32)cc1)C(F)(F)F [CPD0073572, N-[(1S)-1-(4-{4-chloro-2,3,7,10-tetraazatricyclo[7.4.0.0^2,6]trideca-1(9),3,5,7-tetraen-10-yl}phenyl)-2,2,2-trifluoroethyl]-2-(1,1-dioxo-1λ^6-thiomorpholin-4-yl)-N-methylacetamide]	163 nM	253 nM
COC(=O)N1CCC(C(=O)N(C)[C@@H](c2ccc(N3CCCc4c3cnc3cc(Cl)nn43)cc2)C(F)(F)F)CC1 [CPD0073691, methyl 4-{[(1S)-1-(4-{4-chloro-2,3,7,10-tetraazatricyclo[7.4.0.0^2,6]trideca-1(9),3,5,7-tetraen-10-yl}phenyl)-2,2,2-trifluoroethyl](methyl)carbamoyl}piperidine-1-carboxylate]	101 nM	149 nM
CN(C(=O)C1CCS(=N)(=O)CC1)[C@@H](c1ccc(N2CC3(CC3)Cc3c2cnc2cc(Cl)nn32)cc1)C(F)(F)F (stereo partly drawn) [CPD0073761, N-[(1S)-1-[4-(4-chlorospiro[2,3,7,10-tetrazatricyclo[7.4.0.0^2,6]trideca-1(9),3,5,7-tetraene-12,1′-cyclopropane]-10-yl)phenyl]-2,2,2-trifluoro-ethyl]-1-imino-N-methyl-1-oxo-thiane-4-carboxamide]	78 nM	317 nM
CCN(C(=O)C1CCS(=O)(=O)CC1)[C@@H](c1ccc(N2CCCc3c2cnc2cc(Cl)nn32)cc1)C(F)(F)F [CPD0073918, N-[(1S)-1-(4-{4-chloro-2,3,7,10-tetraazatricyclo[7.4.0.0^2,6]trideca-1(9),3,5,7-tetraen-10-yl}phenyl)-2,2,2-trifluoroethyl]-N-ethyl-1,1-dioxo-1λ^6-thiane-4-carboxamide]	106 nM	145 nM
CC(=O)N1CCC(C(=O)N(C)[C@@H](c2ccc(N3CC[C@@H](C)c4c3cnc3cc(Cl)nn43)cc2)C(F)(F)F)CC1 [CPD0074558]	74 nM	67 nM
COc1ccc2ncc(Nc3ccc([C@H](N(C)C(=O)[C@H]4CC[S@](=N)(=O)CC4)C(F)(F)F)cc3)c([C@@H](C)OC)c2n1 [CPD0075563]	102 nM	257 nM
COc1ccc2ncc(Nc3ccc([C@H](N(C)C(=O)[C@H]4CC[S@@](=N)(=O)CC4)C(F)(F)F)cc3)c([C@@H](C)OC)c2n1 [CPD0075564]	89 nM	175 nM

Stronger by IC50 [1], values ahead:

IC50 [1]	IC50 [2]	SMILES
50 nM	77 nM	CN(C(=O)C1(C#N)CCS(=O)(=O)CC1)[C@@H](c1ccc(N2CCCc3c2cnc2cc(Cl)nn32)cc1)C(F)(F)F [CPD0073553, N-[(1S)-1-(4-{4-chloro-2,3,7,10-tetraazatricyclo[7.4.0.0^2,6]trideca-1(9),3,5,7-tetraen-10-yl}phenyl)-2,2,2-trifluoroethyl]-4-cyano-N-methyl-1,1-dioxo-1λ^6-thiane-4-carboxamide]
61 nM	112 nM	CN(C(=O)[C@@H]1CCC(=O)N1C)[C@@H](c1ccc(N2CCCc3c2cnc2cc(Cl)nn32)cc1)C(F)(F)F [CPD0073919, (2S)-N-[(1S)-1-(4-{4-chloro-2,3,7,10-tetraazatricyclo[7.4.0.0^2,6]trideca-1(9),3,5,7-tetraen-10-yl}phenyl)-2,2,2-trifluoroethyl]-N,1-dimethyl-5-oxopyrrolidine-2-carboxamide]
60 nM	94 nM	CN1C(=O)CC[C@@H]1C(=O)N(C)[C@@H](c1ccc(N2CCCc3c2cnc2cc(Cl)nn32)cc1)C(F)(F)F [CPD0073920, (2R)-N-[(1S)-1-(4-{4-chloro-2,3,7,10-tetraazatricyclo[7.4.0.0^2,6]trideca-1(9),3,5,7-tetraen-10-yl}phenyl)-2,2,2-trifluoroethyl]-N,1-dimethyl-5-oxopyrrolidine-2-carboxamide]
63 nM	120 nM	CN(C(=O)[C@@H]1CC(=O)N1)[C@@H](c1ccc(N2CCCc3c2cnc2cc(Cl)nn32)cc1)C(F)(F)F [CPD0075870, (2S)-N-[(1S)-1-[4-(4-chloro-2,3,7,10-tetrazatricyclo[7.4.0.0^2,6]trideca-1(9),3,5,7-tetraen-10-yl)phenyl]-2,2,2-trifluoro-ethyl]-N-methyl-4-oxo-azetidine-2-carboxamide]
